Read-outs that look alike come from different tables or passages of the source.
Tests used:
[1] = target: T1, HCV NS5B RdRp genotype 1b (Hepatitis C virus genotype 1b, UniProt Q9WMX2); assay: Modified HCV NS5B RdRp enzyme assay (preincubation protocol); type: biochemical
T1 construct: The protein was expressed with an 18 amino acid C-terminal truncation to enhance the solubility; made in house; host or cells: E. coli BL21(DE3)
Description: HCV NS5B RdRp cloning, expression, and purification. The cDNA encoding the NS5B protein of HCV, genotype 1b, was cloned into the pET21a expression vector. The protein was expressed with an 18 amino acid C-terminal truncation to enhance the solubility. The E. coli competent cell line BL21(DE3) was used for expression of the protein. Cultures were grown at 37° C. for ˜4 hours until the cultures reached an optical density of 2.0 at 600 nm. The cultures were cooled to 20° C. and induced with 1 mM IPTG. Fresh ampicillin was added to a final concentration of 50 μg/ml and the cells were grown overnight at 20° C.
Cell pellets (3 L) were lysed for purification to yield 15-24 mgs of purified NS5B. The lysis buffer consisted of 20 mM Tris-HCl, pH 7.4, 500 mM NaCl, 0.5% triton X-100, 1 mM DTT, 1 mM EDTA, 20% glycerol, 0.5 mg/ml lysozyme, 10 mM MgCl2, 15 ug/ml deoxyribonuclease I, and Complete TM protease inhibitor tablets (Roche). After addition of the lysis buffer, frozen cell pellets were resuspended using a tissue homogenizer. To reduce the viscosity of the sample, aliquots of the lysate were sonicated on ice using a microtip attached to a Branson sonicator. The sonicated lysate was centrifuged at 100,000×g for 1 hr at 4° C. and filtered through a 0.2 μm filter unit (Corning).
The protein was purified using three sequential chromatography steps: Heparin sepharose CL-6B, polyU sepharose 4B, and Hitrap SP sepharose (Pharmacia). The chromatography buffers were identical to the lysis buffer but contained no lysozyme, deoxyribonuclease I, MgCl2 or protease inhibitor and the NaCl concentration of the buffer was adjusted according to the requirements for charging the protein onto the column. Each column was eluted with a NaCl gradient which varied in length from 5-50 column volumes depending on the column type. After the final chromatography step, the resulting purity of the enzyme is >90% based on SDS-PAGE analysis. The enzyme was aliquoted and stored at −80° C.
Standard HCV NS5B RdRp enzyme assay. HCV RdRp genotype 1b assays were run in a final volume of 60 μl in 96 well plates (Costar 3912). The assay buffer is composed of 20 mM Hepes, pH 7.5, 2.5 mM KCl, 2.5 mM MgCl2, 1 mM DTT, 1.6 U RNAse inhibitor (Promega N2515), 0.1 mg/ml BSA (Promega R3961), and 2% glycerol. All compounds were serially diluted (3-fold) in DMSO and diluted further in water such that the final concentration of DMSO in the assay was 2%. HCV RdRp genotype 1b enzyme was used at a final concentration of 28 nM. A polyA template was used at 6 nM, and a biotinylated oligo-dT12 primer was used at 180 nM final concentration. Template was obtained commercially (Amersham 27-4110). Biotinylated primer was prepared by Sigma Genosys. 3H-UTP was used at 0.6 μCi (0.29 μM total UTP). Reactions were initiated by the addition of enzyme, incubated at 30° C. for 60 min, and stopped by adding 25 μl of 50 mM EDTA containing SPA beads (4 μg/μl, Amersham RPNQ 0007). Plates were read on a Packard Top Count NXT after >1 hr incubation at room temperature.
Modified HCV NS5B RdRp enzyme assay. A modified enzyme assay was performed essentially as described for the standard enzyme assay except for the following: The biotinylated oligo dT12 primer was precaptured on streptavidin-coated SPA beads by mixing primer and beads in assay buffer and incubating at room temperature for one hour. Unbound primer was removed after centrifugation. The primer-bound beads were resuspended in 20 mM Hepes buffer, pH 7.5 and used in the assay at final concentrations of 20 nM primer and 0.67 μg/μl beads. Order of addition in the assay: enzyme (14 nM) was added to diluted compound followed by the addition of a mixture of template (0.2 nM), 3H-UTP (0.6 μCi, 0.29 μM), and primer-bound beads, to initiate the reaction; concentrations given are final. Reactions were allowed to proceed for 4 hours at 30° C.
IC50 values for compounds were determined using seven different [I]. […]

HCV replicon cells = assay: HCV replicon FRET assay; type: cell-based; conditions: Hepatitis C virus
Description: FRET Assay Preparation. To perform the HCV FRET screening assay, 96-well cell culture plates were used. The FRET peptide (Anaspec, Inc.) (Taliani et al., Anal. Biochem. 1996, 240, 60-67) contains a fluorescence donor, EDANS, near one end of the peptide and an acceptor, DABCYL, near the other end. The fluorescence of the peptide is quenched by […] resonance energy transfer (RET) between the donor and the acceptor, but as the NS3 protease cleaves the peptide the products are released from RET quenching and the fluorescence of the donor becomes apparent. The assay reagent was made as follows: 5× cell Luciferase cell culture lysis reagent from Promega (#E153A) diluted to 1× with dH2O, NaCl added to 150 mM final, the FRET peptide diluted to 20 uM final from a 2 mM stock.
To prepare plates, HCV replicon cells, with or without a Renilla luciferase reporter gene, were trypsinized and placed into each well of a 96-well plate with titrated test compounds added in columns 3 through 12; columns 1 and 2 contained a control compound (HCV protease inhibitor), and the bottom row contained cells without compound. The plates were then placed in a CO2 incubator at 37° C.
Assays. Subsequent to addition of the test compounds described above (FRET Assay Preparation), at various times the plate was removed and Alamar blue solution (Trek Diagnostics, #00-100) was added per well as a measure of cellular toxicity. After reading in a Cytoflour 4000 instrument (PE Biosystems), plates were rinsed with PBS and then used for FRET assay by the addition of 30 ul of the FRET peptide assay reagent described above (FRET Assay Preparation) per well. The plate was then placed into the Cytoflour 4000 instrument which had been set to 340 excite/490 emission, automatic mode for 20 cycles and the plate read in a kinetic mode. Typically, the signal to noise using an endpoint analysis after the reads was at least three-fold. Alternatively, after Alamar blue reading, plates were rinsed with PBS, 50 ul of DMEM (high glucose) without phenol red was added and plates were then used for luciferase assay using the Promega Dual-Glo Luciferase Assay System.
Compound analysis was determined by quantification of the relative HCV replicon inhibition and the relative cytotoxicity values. To calculate cytoxicity values, the average Alamar Blue fluorescence signals from the control wells were set as 100% non-toxic. The individual signals in each of the compound test wells were then divided by the average control signal and multiplied by 100% to determine […]. To calculate the HCV replicon inhibition values, an average background value was obtained from the two wells containing the highest amount of HCV protease inhibitor at the end of the assay period. These numbers were similar to those obtained from naïve Huh-7 cells.
The background numbers were then subtracted from the average signal obtained from the control wells and this number was used as 100% activity. The individual signals in each of the compound test wells were then divided by the averaged control values after background subtraction and multiplied by 100% to determine percent activity. EC50 values for a protease inhibitor titration were calculated as the concentration which caused a 50% reduction in FRET or luciferase activity. The two numbers generated for the compound plate, percent cytoxicity and percent activity were used to determine compounds of interest for further analysis.

[2] = HCV NS5B RdRp genotype 1b, preincubation protocol, read-out: IC50
[3] = HCV replicon cells, FRET assay, read-out: EC50

T1 sequence (Q9WMX2 2420-2992): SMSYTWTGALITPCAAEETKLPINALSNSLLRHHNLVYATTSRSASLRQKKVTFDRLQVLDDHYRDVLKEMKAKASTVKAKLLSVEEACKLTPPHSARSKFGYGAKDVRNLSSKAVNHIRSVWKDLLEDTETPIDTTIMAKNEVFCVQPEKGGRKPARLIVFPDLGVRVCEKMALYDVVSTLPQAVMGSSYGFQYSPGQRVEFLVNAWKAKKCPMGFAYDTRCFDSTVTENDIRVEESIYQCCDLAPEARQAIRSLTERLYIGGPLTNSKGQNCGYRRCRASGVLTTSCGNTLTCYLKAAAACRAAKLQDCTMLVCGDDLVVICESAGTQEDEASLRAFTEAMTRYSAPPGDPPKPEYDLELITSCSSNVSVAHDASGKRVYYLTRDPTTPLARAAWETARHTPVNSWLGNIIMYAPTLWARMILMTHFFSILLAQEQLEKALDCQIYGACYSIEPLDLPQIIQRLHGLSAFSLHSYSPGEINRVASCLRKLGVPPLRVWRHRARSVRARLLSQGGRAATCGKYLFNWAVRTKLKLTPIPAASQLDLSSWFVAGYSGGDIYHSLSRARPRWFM

Row | Structure (SMILES) | IC50 [1, 2] [nM] | EC50 (HCV replicon cells; [3]) [nM] | IC50 [1] [nM] | EC50 (HCV replicon cells) [nM]
1 | COc1ccc2c(c1)C1CC1(S(=O)(=O)N1CCN3CCC1CC3)Cn1c-2c(C2CCCCC2)c2ccc(C(=O)NS(=O)(=O)C(C)C)cc21 (stereo not drawn) | 20 to 1000 | 20 to 1000 |  | 
2 | COc1ccc2c(c1)C1CC1(S(=O)(=O)N1CCN(S(C)(=O)=O)CC1)Cn1c-2c(C2CCCCC2)c2ccc(C(=O)NS(=O)(=O)N(C)C)cc21 (stereo not drawn) | 20 to 1000 | 20 to 1000 |  | 
3 | COc1ccc2c(c1)C1CC1(S(=O)(=O)N1C[C@@H](C)N(C)[C@@H](C)C1)Cn1c-2c(C2CCCCC2)c2ccc(C(=O)O)cc21 (stereo partly drawn) | 20 to 1000 | 20 to 1000 |  | 
4 | COc1ccc2c(c1)C1CC1(S(=O)(=O)N1C[C@@H](C)N(C)[C@@H](C)C1)Cn1c-2c(C2CCCCC2)c2ccc(C(=O)NS(=O)(=O)C(C)C)cc21 (stereo partly drawn) | 20 to 1000 | 20 to 1000 |  | 
5 | COc1ccc2c(c1)CC(S(=O)(=O)N1CCOCC1)Cn1c-2c(C2CCCCC2)c2ccc(C(=O)NS(=O)(=O)N(C)C)cc21 (stereo not drawn) | 20 to 1000 | 20 to 1000 |  | 
6 | COc1ccc2c(c1)C1CC1(S(=O)(=O)N1CC(C)(O)C1)Cn1c-2c(C2CCCCC2)c2ccc(C(=O)O)cc21 (stereo not drawn) | 20 to 1000 | 20 to 1000 |  | 
7 | CCS(=O)(=O)NC(=O)c1ccc2c(C3CCCCC3)c3n(c2c1)CC1(S(=O)(=O)N2C[C@@H](C)N(C)[C@@H](C)C2)CC1c1cc(OC)ccc1-3 (stereo partly drawn) | 20 to 1000 | 20 to 1000 |  | 
8 | COc1ccc2c(c1)C1CC1(S(=O)(=O)N1C3CCC1CC(C)(O)C3)Cn1c-2c(C2CCCCC2)c2ccc(C(=O)NS(=O)(=O)C(C)C)cc21 (stereo not drawn) |  |  | 20 to 1000 | 20 to 1000
9 | COc1ccc2c(c1)C1CC1(S(=O)(=O)N1C3CCC1CC3)Cn1c-2c(C2CCCCC2)c2ccc(C(=O)NS(=O)(=O)C(C)C)cc21 (stereo not drawn) |  |  | 20 to 1000 | 20 to 1000
10 | COc1ccc2c(c1)C1CC1(S(=O)(=O)N1C[C@@H](C)N(C)[C@@H](C)C1)Cn1c-2c(C2CCCCC2)c2ccc(C(=O)NS(=O)(=O)N(C)C)cc21 (stereo partly drawn) | 20 to 1000 | 20 to 1000 |  | 
11 | COc1ccc2c(c1)C1CC1(S(=O)(=O)N1CC3C[C@H]1CN3C)Cn1c-2c(C2CCCCC2)c2ccc(C(=O)O)cc21 (stereo partly drawn) | 20 to 1000 | 20 to 1000 |  | 
12 | COc1ccc2c(c1)C1CC1(S(=O)(=O)N1CCC1)Cn1c-2c(C2CCCCC2)c2ccc(C(=O)NS(=O)(=O)C(C)C)cc21 (stereo not drawn) | 20 to 1000 | 20 to 1000 |  | 
13 | COc1ccc2c(c1)C1CC1(S(=O)(=O)N1CC[C@@H](N(C)C)C1)Cn1c-2c(C2CCCCC2)c2ccc(C(=O)NS(=O)(=O)N3CCOCC3)cc21 (stereo partly drawn) | 20 to 1000 | 20 to 1000 |  | 
14 | COc1ccc2c(c1)C1CC1(S(=O)(=O)N1CCN(S(C)(=O)=O)CC1)Cn1c-2c(C2CCCCC2)c2ccc(C(=O)O)cc21 (stereo not drawn) | 20 to 1000 | 1000 to 10000 |  | 
15 | COc1ccc2c(c1)C1CC1(S(=O)(=O)N1CCN3CCCC3C1)Cn1c-2c(C2CCCCC2)c2ccc(C(=O)NS(=O)(=O)N3CCOCC3)cc21 (stereo not drawn) [drawing 64] | 20 to 1000 | 20 to 1000 |  | 
16 | COc1ccc2c(c1)C1CC1(S(=O)(=O)N(C)C)Cn1c-2c(C2CCCCC2)c2ccc(C(=O)NS(=O)(=O)N(C)C)cc21 (stereo not drawn) | 20 to 1000 | 20 to 1000 |  | 
17 | COc1ccc2c(c1)C1CC1(S(=O)(=O)N1CC3C[C@H]1CN3C)Cn1c-2c(C2CCCCC2)c2ccc(C(=O)NS(=O)(=O)N(C)C)cc21 (stereo partly drawn) | 20 to 1000 | 20 to 1000 |  | 
18 | CCN1CC2CC1CN2S(=O)(=O)C12CC1c1cc(OC)ccc1-c1c(C3CCCCC3)c3ccc(C(=O)NS(=O)(=O)N(C)C)cc3n1C2 (stereo not drawn) | 20 to 1000 | 20 to 1000 |  | 
19 | COc1ccc2c(c1)C1CC1(S(=O)(=O)N1CCCN(C)CC1)Cn1c-2c(C2CCCCC2)c2ccc(C(=O)NS(=O)(=O)N(C)C)cc21 (stereo not drawn) | 20 to 1000 | 20 to 1000 |  | 
20 | COc1ccc2c(c1)C1CC1(S(=O)(=O)N1CCOCC1)Cn1c-2c(C2CCCCC2)c2ccc(C(=O)NS(=O)(=O)N(C)C)cc21 (stereo not drawn) | 20 to 1000 | 20 to 1000 |  | 
21 | COc1ccc2c(c1)C1CC1(S(=O)(=O)N1CCC1)Cn1c-2c(C2CCCCC2)c2ccc(C(=O)NS(=O)(=O)N3CCOCC3)cc21 (stereo not drawn) | 20 to 1000 | 20 to 1000 |  | 
22 | COc1ccc2c(c1)C1CC1(S(=O)(=O)N1CC[C@@H](N(C)C)C1)Cn1c-2c(C2CCCCC2)c2ccc(C(=O)NS(=O)(=O)C(C)C)cc21 (stereo partly drawn) | 20 to 1000 | 20 to 1000 |  | 
23 | COc1ccc2c(c1)C1CC1(S(=O)(=O)N1C[C@@H](C)O[C@@H](C)C1)Cn1c-2c(C2CCCCC2)c2ccc(C(=O)O)cc21 (stereo partly drawn) | 20 to 1000 | 20 to 1000 |  | 
24 | COc1ccc2c(c1)C1CC1(S(=O)(=O)N(C)C)Cn1c-2c(C2CCCCC2)c2ccc(C(=O)O)cc21 (stereo not drawn) | 1000 to 10000 | 20 to 1000 |  | 
